For assay [1], the system named is breast cancer cells (MDA-MB-468). In words: Cancer cell line growth inhibition, Sulforhodamine B assay, MDA-MB-468. Format: cell-based. Particulars: read-out: Cancer Cell Line GI50 Range MDA-MB-468. As for the experimental part: (§1) Breast cancer cells (MDA-MB-231 and MDA-MB-468), colon cancer cells (HCT116) and ovarian cancer cells (PA-1 and OVCAR-3) were seeded (1000 to 4000 in 80 μl per well depending on the cell growth rate) into 96 well plates 24 hours before compound overlay. Compounds were prepared as 10 mM stock solutions in 100% DMSO which were diluted with DMEM (Dulbecco's Modified Eagle's Medium) cell growth Medium (Invitrogen, Burlington, ON, Canada) containing 10% FBS (Fetal Bovine Serum) to concentrations ranging from 50 nM to 250 μM. Aliquots (20 μl) from each concentration were overlaid to 80 μl of the pre-seeded cells in the 96 well plates to make final concentrations of 10 nM to 50 μM. The cells were cultured for 5 days before the Sulforhodamine B assay (SRB) was performed to determine the compound's cell growth inhibition activity.
(§2) Sulforhodamine B (purchased from Sigma, Oakville, ON, Canada) is a water-soluble dye that binds to the basic amino acids of the cellular proteins. Thus, colorimetric measurement of the bound dye provides an estimate of the total protein mass that is related to the cell number. the cells are fixed in situ by gently aspirating off the culture media and adding 50 μl ice cold 10% Trichloroacetic Acid (TCA) per well and incubate at 4° C. for 30-60 min, The plates are washed with H2O five times and allowed to air dry for 5 min. Addition of 50 μl 0.4% (w/v) SRB solution in 1% (v/v) acetic acid to each well and incubation for 30 min at RT completes the staining reaction. Following staining, plates are washed four times with 1% acetic acid to remove unbound dye and then allowed to air dry for 5 min. The stain is solubilized with 100 μl of 10 mM Tris pH 10.5 per well. Absorbance is read at 570 nm.
(§3) The percentage (%) of relative growth inhibition was calculated by comparing to DMSO treated only cells (100%). GI50's were determined for compounds with cytotoxic activity. The GI50 was calculated using GraphPad PRISM software (GraphPad Software, Inc., San Diego, Calif., USA).
(§4) In Table 1 below, GI50 value ranges for compound examples against breast cancer cell lines (MDA-MB-468), colon cancer cell lines (HCT116) and ovarian cancer cell lines (PA-1) are given.
(§5) In Table 3 below, GI50 value ranges for compound examples against breast cancer cell lines (MDA-MB-468), colon cancer cell lines (HCT116) and ovarian cancer cell lines (OVCAR-3) are given.
(The SRB assay estimates cell density from bound dye.)

For assay [2], the system named is ovarian cancer cells (OVCAR-3). In words: Cancer cell line growth inhibition, Sulforhodamine B assay, OVCAR-3. Format: cell-based. Particulars: read-out: Cancer Cell Line GI50 Range OVCAR-3. As for the experimental part: as §1, §2, §3, §5
A further assay concerns the target T1, human TTK (Homo sapiens, UniProt P33981).
T1 construct: Active TTK was purchased from Invitrogen as an amino terminal GST fusion of full length human TTK; purchased Invitrogen
T1 sequence (P33981 1-857): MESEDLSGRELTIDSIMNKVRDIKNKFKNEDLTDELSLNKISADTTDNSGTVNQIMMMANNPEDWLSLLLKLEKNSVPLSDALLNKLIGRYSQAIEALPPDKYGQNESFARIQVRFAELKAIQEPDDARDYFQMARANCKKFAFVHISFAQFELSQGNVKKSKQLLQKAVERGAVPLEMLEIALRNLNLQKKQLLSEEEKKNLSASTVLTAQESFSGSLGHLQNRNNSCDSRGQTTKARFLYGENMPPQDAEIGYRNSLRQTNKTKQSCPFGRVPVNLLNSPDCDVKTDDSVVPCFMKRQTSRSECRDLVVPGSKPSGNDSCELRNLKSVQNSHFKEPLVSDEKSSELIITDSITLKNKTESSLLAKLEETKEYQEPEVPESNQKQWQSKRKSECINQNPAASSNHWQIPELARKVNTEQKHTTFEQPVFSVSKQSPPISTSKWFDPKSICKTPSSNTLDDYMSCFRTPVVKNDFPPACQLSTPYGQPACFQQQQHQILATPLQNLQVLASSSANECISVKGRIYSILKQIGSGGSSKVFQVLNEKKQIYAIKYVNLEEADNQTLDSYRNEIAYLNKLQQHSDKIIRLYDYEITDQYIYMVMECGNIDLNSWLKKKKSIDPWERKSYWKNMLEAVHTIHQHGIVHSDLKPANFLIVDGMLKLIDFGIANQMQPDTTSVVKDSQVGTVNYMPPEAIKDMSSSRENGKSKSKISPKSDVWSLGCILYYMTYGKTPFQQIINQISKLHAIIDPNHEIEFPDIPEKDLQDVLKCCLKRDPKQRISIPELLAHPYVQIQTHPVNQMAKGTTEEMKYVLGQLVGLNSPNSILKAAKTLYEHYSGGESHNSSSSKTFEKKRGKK
Briefly: TTK inhibition assay (indirect ELISA). Format: biochemical. The method in brief: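 Activity detected by indirect ELISA after compounds sat with full-length GST-TTK for 5 min prior to starting the reaction with ATP. IC50 came from a four-parameter logistic curve of % inhibition, calculated against background and uninhibited control wells.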
A general note: In an ELISA, binding on a coated surface is turned into a signal by an enzyme label.

The subject of assay [3] is colon cancer cells (HCT116). In words: Cancer cell line growth inhibition, Sulforhodamine B assay, HCT116. As to conditions: read-out: Cancer Cell Line GI50 Range HCT116. Format: cell-based. How it is done:
as §1, §2, §3, §4
In Table 2 below, GI50 value ranges for compound examples against breast cancer cell lines (MDA-MB-231), colon cancer cell lines (HCT116) and ovarian cancer cell lines (PA-1) are given.
as §5

[4] abbreviates: Homo sapiens, MDA-MB-468, MDA-MB-468 breast cancer cell line.
Where [5] appears, read: Homo sapiens, OVCAR-3, OVCAR-3 ovarian cancer cell line.
The mark [6] stands for this setting: 100 μM ATP, read-out: TTK IC50 Range.
[7] abbreviates: Homo sapiens, HCT-116, HCT116 colon cancer cell line.
[8] abbreviates: 16 μM ATP (Sigma cat# A7699), read-out: TTK IC50 Range (denoted with an asterisk).

Results on 15 compounds are retold here after patent US9573954B2, “Pyrazolopyrimidine compounds” (University Health Network, priority 2012, dated 2017).

Each structure is given as a SMILES string. Read-outs that look alike come from different tables or passages of the source.

Usually GI50 stands for the concentration that inhibits growth by half. In general, IC50 refers to the concentration that gives 50% inhibition.

Take `Cc1cc(-c2cnn3c(NCC4CCOCC4)cc(N4CCC[C@H]4CO)nc23)ccc1C(=O)NC1CC1` [Example C161]: the GI50 in assay [1] (setting [4]) is 100 to 500 nM; in assay [2] (setting [5]) it was 100 to 500 nM; in assay [3] (setting [7]), at most 100 nM. Besides, the IC50 on human TTK (setting [6]) is under 100 nM.

`Cc1cc(-c2cnn3c(NCC4CCOCC4)nc(NC4CCCCC4)nc23)ccc1C(=O)NC1CC1` [Example C22]: the GI50 in assay [1] (setting [4]), in assay [2] (setting [5]) and in assay [3] (setting [7]) was 100 to 500 nM each time. For the same compound, the IC50 at human TTK (setting [8]) was under 100 nM.

Turning to `Cc1cc(-c2cnn3c(NCC4CCOCC4)nc(NC4CCOCC4)nc23)ccc1C(=O)NC1CC1` [Example C23], the results for the GI50 in assay [1] (setting [4]), in assay [2] (setting [5]) and in assay [3] (setting [7]) were over 500 nM, over 500 nM and 100 to 500 nM, respectively. Moreover, the IC50 at human TTK (setting [8]) was under 100 nM.

As for `Cc1cc(-c2cnn3c(NCC4CCOCC4)cc(N(C)C4CCCC4)nc23)ccc1C(=O)NC1CC1` [Example C58], the GI50 in assay [1] (setting [4]) is 100 to 500 nM; in assay [2] (setting [5]) it was 100 to 500 nM; in assay [3] (setting [7]) it was at most 100 nM. Further, at human TTK (setting [6]), the IC50 was under 100 nM.

`Cc1cc(-c2cnn3c(NCc4ccncc4)cc(NC4CCOCC4)nc23)ccc1C(=O)NC1CC1` [Example C54]: the GI50 in assay [1] (MDA-MB-468 breast cancer cell line), in assay [2] (OVCAR-3 ovarian cancer cell line) and in assay [3] (HCT116 colon cancer cell line) was 100 to 500 nM in each case. The IC50 at human TTK (setting [6]) was under 100 nM.

Take `COCCNc1nc(OC2CCCC2)nc2c(-c3ccc(C(=O)NC4CC4)cc3)cnn12` [Example C8]: the GI50 in assay [1] (setting [4]), in assay [2] (setting [5]) and in assay [3] (setting [7]) was 100 to 500 nM each time. Moreover, on human TTK (setting [8]), the IC50 is under 100 nM.

With `Cc1cc(-c2cnn3c(NCc4cccnc4)cc(OC4CCOCC4)nc23)ccc1C(=O)NC1CC1` [Example C52], the GI50 in assay [1] (setting [4]) is 100 to 500 nM; in assay [2] (setting [5]), over 500 nM; in assay [3] (setting [7]), 100 to 500 nM. The IC50 at human TTK (setting [6]) was under 100 nM.

Take `Cc1cc(-c2cnn3c(NCC4CCOCC4)cc(NCC4(CO)CC4)nc23)ccc1C(=O)NC1CC1` [Example C113]: the GI50 in assay [1] (setting [4]), in assay [2] (setting [5]) and in assay [3] (setting [7]) was 100 to 500 nM throughout. Also, the IC50 on human TTK (setting [6]) is under 100 nM.

As to `Cc1cc(-c2cnn3c(NC[C@H]4CCCO4)cc(NC4CCCC4)nc23)ccc1C(=O)NC1CC1` [Example C62], the GI50 in assay [1] (setting [4]), in assay [2] (setting [5]) and in assay [3] (setting [7]) was 100 to 500 nM throughout. In addition, the IC50 at human TTK (setting [6]) was under 100 nM.

Regarding `Cc1cc(-c2cnn3c(NCC4CCOCC4)cc(N[C@H]4COC[C@H]4O)nc23)ccc1C(=O)NC1CC1` [Example C107], the GI50 in assay [1] (setting [4]) was 100 to 500 nM; in assay [2] (setting [5]), over 500 nM; in assay [3] (setting [7]), 100 to 500 nM. Besides, at human TTK (setting [6]), the IC50 is under 100 nM.

Consider `Cc1cc(-c2cnn3c(NCC4CCOCC4)cc(N[C@H]4CCC[C@@H]4O)nc23)ccc1C(=O)NC1CC1` [Example C123], for which the values for the GI50 in assay [1] (setting [4]), in assay [2] (setting [5]) and in assay [3] (setting [7]) were at most 100 nM, 100 to 500 nM and at most 100 nM, respectively. On human TTK (setting [6]), the IC50 was under 100 nM.

As for `Cc1cc(-c2cnn3c(NCc4cccnc4)cc(NC4CCOCC4)nc23)ccc1C(=O)NC1CC1` [Example C49], the GI50 in assay [1] (setting [4]), in assay [2] (setting [5]) and in assay [3] (setting [7]) was 100 to 500 nM each time. The IC50 at human TTK (setting [6]) was under 100 nM.

For `Cc1cc(-c2cnn3c(NCC4CCOCC4)cc(NCC4CCOCC4)nc23)ccc1C(=O)NC1CC1` [Example C57], the GI50 in assay [1] (setting [4]), in assay [2] (setting [5]) and in assay [3] (setting [7]) was 100 to 500 nM each time. In addition, at human TTK (setting [6]), the IC50 is under 100 nM.

Regarding `Cc1cc(-c2cnn3c(NCC4CCOCC4)cc(N[C@H]4CCCOC4)nc23)ccc1C(=O)NC1CC1` [Example C83], the GI50 in assay [1] (setting [4]) was 100 to 500 nM; in assay [2] (setting [5]) it was 100 to 500 nM; in assay [3] (setting [7]) it was at most 100 nM. The IC50 at human TTK (setting [6]) was under 100 nM.

In the case of `Cc1cc(-c2cnn3c(NCC4CCOCC4)cc(N[C@H](CO)C(C)(C)C)nc23)ccc1C(=O)NC1CC1` [Example C78], the GI50 in assay [1] (setting [4]), in assay [2] (setting [5]) and in assay [3] (setting [7]) was 100 to 500 nM each time. The IC50 at human TTK (setting [6]) is under 100 nM.
